Source: patent US10201545B2, “Styrenyl derivative compounds for treating ophthalmic diseases and disorders” (Acucela Inc., priority 2007, dated 2019)

Biological target: isomerase (Mus musculus (Mouse), UniProt Q91ZQ5)
Assay: In vivo murine isomerase assay (recovery of 11-cis-retinal after photobleaching)
Set-up: species or system CD-1 (albino) male mice
Conditions: for inhibition at 10 mg/kg / inhibition at 1 mg/kg / inhibition at 5 mg/kg / ED50: mouse; for inhibition at 10 mg/kg / inhibition at 1 mg/kg / inhibition at 5 mg/kg: po, negative numbers leveled to 0%; for inhibition at 10 mg/kg: 10 mg/kg oral gavage; for inhibition at 1 mg/kg: 1 mg/Kg oral gavage; for inhibition at 5 mg/kg: 5 mg/kg oral gavage; for ED50: estimated, oral gavage, read-out: ED50 (dose of compound that gives 50% inhibition of 11-cis retinal (oxime) recovery)
Protocol: The capability of styrenyl derivatives to inhibit isomerase is determined by an in vivo murine isomerase assay. Brief exposure of the eye to intense light (“photobleaching” of the visual pigment or simply “bleaching”) is known to photo-isomerize almost all 11-cis-retinal in the retina. The recovery of 11-cis-retinal after bleaching can be used to estimate the activity of isomerase in vivo. Procedures were performed essentially as described by Golczak et al., Proc. Natl. Acad. Sci. USA 102:8162-67 (2005). See also Deigner et al., Science, 244: 968-71 (1989); Gollapalli et al., Biochim Biophys Acta. 1651: 93-101 (2003); Parish, et al., Proc. Natl. Acad. Sci. USA, 14609-13 (1998); Radu, et al., Proc Natl Acad Sci USA 101: 5928-33 (2004). […] Mice were gavaged with styrenyl derivative compounds, Compound 1 or Compound 25. Compound B was included as a positive control, and Compound A with low activity was also included. After 1-72 hours in the dark, the mice were exposed to photobleaching of 3,000 lux of white light for 10 minutes. The mice were allowed to recover 2 hours in the dark. The animals were then sacrificed by carbon dioxide inhalation. Retinoids were extracted from the eye and the regeneration of 11-cis-retinal was assessed at various time intervals. All steps were performed in darkness with minimal redlight illumination (low light darkroom lights and […] flashlights for spot illumination as needed) (see, e.g., Maeda et al., J. Neurochem 85:944-956, 2003; Van Hooser et al., J Biol Chem 277:19173-82, 2002). After the mice were sacrificed, the eyes were immediately removed and placed in liquid nitrogen. The eyes were then homogenized in a glass/glass homogenizer (Kontes Glass Co., homogenizer & pestle 21) containing 1 ml retinoid analysis buffer (50 mM MOPS, 10 mM NH2OH, 50% EtOH, pH 7.0 (stock buffer was stored in absence of ethanol)). The eyes were homogenized until no visible tissue remained (approximately 3 minutes). The samples were incubated 20 minutes at room temperature (including homogenizing) and then placed on ice. One ml cold EtOH was added to the homogenate to rinse the pestle, and the homogenate mixture was transferred to 7 ml glass screwtop tubes on ice. The homogenizer was rinsed with 7 ml hexane, which was added to the 7 ml tubes on ice. The homogenate was mixed by vortexing at high speed for 1 minute. The phases were separated by centrifugation (5 minutes at 4000 rpm, 4° C.). The upper phase was collected and transferred to a clean glass test tube, taking care to avoid disturbing the interface by leaving approximately 0.2 ml of upper phase in the tube. The tubes with the collected upper phase were placed in a heating block at 25° C. and dried under a stream of Argon ( 30 minutes). The lower phase was again extracted by adding 4 ml hexane, vortexing, and separating the phases by centrifugation. The upper phase was collected as described above and pooled into the drying tubes. The dried samples were solubilized in 300 μl Hexane (Fisher Optima grade) and vortexed lightly. The samples were transferred to clean 300 μl glass inserts in HPLC vials using glass pipette and the vials were crimped shut tightly. […] Part #235341). […] The area under the curve for 11-cis retinal oxime was calculated by Agilent Chemstation software and was recorded manually. Data processing was performed using Prizm software. Positive control mice (no compound administered) were sacrificed fully dark-adapted and the eye retinoids analyzed. Light (bleached) control mice (no compound administered) were sacrificed and retinoids isolated and analyzed immediately after light treatment.

Chain of isomerase (Q91ZQ5 whole entry): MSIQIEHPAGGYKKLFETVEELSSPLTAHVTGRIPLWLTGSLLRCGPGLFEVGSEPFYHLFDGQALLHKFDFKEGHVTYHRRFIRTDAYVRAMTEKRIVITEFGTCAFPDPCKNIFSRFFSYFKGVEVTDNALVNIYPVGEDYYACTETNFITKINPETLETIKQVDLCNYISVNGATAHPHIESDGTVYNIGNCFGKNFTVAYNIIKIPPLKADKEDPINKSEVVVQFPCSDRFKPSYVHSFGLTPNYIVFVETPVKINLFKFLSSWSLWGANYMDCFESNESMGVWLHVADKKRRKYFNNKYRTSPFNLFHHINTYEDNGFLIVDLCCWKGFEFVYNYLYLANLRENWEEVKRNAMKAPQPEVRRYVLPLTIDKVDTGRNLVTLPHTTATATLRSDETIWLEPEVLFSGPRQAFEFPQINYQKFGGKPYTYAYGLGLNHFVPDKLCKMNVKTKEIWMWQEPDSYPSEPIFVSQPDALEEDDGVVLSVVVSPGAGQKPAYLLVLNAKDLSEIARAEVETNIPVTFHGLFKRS

With Cc1cc(C)cc(C=Cc2cccc(CCCN)c2)c1 (mixture of isomers) [Example 40, (E/Z)-4-(3-(3,5-dimethylstyryl)phenyl)propan-1-amine] the inhibition at 10 mg/kg (4 h) was 2%.
In the case of CC1=C(/C=C/c2cccc(OCCN)c2)C(C)(C)CCC1 [Example 31, (E)-2-(3-(2-(2,6,6-trimethylcyclohex-1-enyl)vinyl)phenoxy)ethanamine], the inhibition at 1 mg/kg (2 h) is reported as 0%, the inhibition at 1 mg/kg (6 h) is reported as 2% and the inhibition at 1 mg/kg (24 h) is reported as 0%. It also gave an inhibition at 5 mg/kg (4 h) of 53% and an inhibition at 5 mg/kg (24 h) of 46%.
NCCCc1cccc(/C=C/c2c(C(F)(F)F)cccc2C(F)(F)F)c1 [Example 49, (E)-3-(3-(2,6-bis(trifluoromethyl)styryl)phenyl)propan-1-amine] showed an inhibition at 1 mg/kg (4 h) of 10%, an inhibition at 1 mg/kg (24 h) of 0% and an inhibition at 5 mg/kg (4 h) of 60%. For the same molecule, the inhibition at 5 mg/kg (24 h) was 84%.
CC1=C(/C=C/c2cccc(CC(C)CN)c2)C(C)(C)CCC1 (stereo not shown) [Example 26, (E)-2-methyl-3-(3-(2-(2,6,6-trimethylcyclohex-1-enyl)vinyl)phenyl)propan-1-amine] gave an inhibition at 10 mg/kg (4 h) of 80%.
CCc1cccc(C)c1C=Cc1cccc(CCCN)c1 (mixture of isomers) [Example 32, (E/Z)-3-(3-(2-ethyl-6-methylstyryl)phenyl)propan-1-amine] gave an inhibition at 10 mg/kg (4 h) of 52%.
CC1=C(/C=C/c2cccc(C(O)CCN)c2)C(C)(C)CCC1 (stereo not shown) [Compound 25, (E)-3-amino-1-(3-(2-(2,6,6-trimethylcyclohex-1-enyl)vinyl)phenyl)propan-1-ol] showed an inhibition at 1 mg/kg (4 h) of 89%, an inhibition at 1 mg/kg (24 h) of 96% and an inhibition at 10 mg/kg (4 h) of 100%. The ED50 (mice) was 0.44 mg/kg.
CC1=C(/C=C/c2cccc(C(C)CCN)c2)C(C)(C)CCC1 (stereo not shown) [Example 27, (E)-3-(3-(2-(2,6,6-trimethylcyclohex-1-enyl)vinyl)phenyl)butan-1-amine] gave an inhibition at 10 mg/kg (4 h) of 11%.
NC[C@H](O)Cc1cccc(/C=C/c2c(Cl)cccc2Cl)c1 [Example 74, (R,E)-1-amino-3-(3-(2,6-dichlorostyryl)phenyl)propan-2-ol] was tested, and the inhibition at 1 mg/kg (2 h) was 19%, the inhibition at 1 mg/kg (6 h) was 40% and the inhibition at 1 mg/kg (24 h) was 9%. The inhibition at 5 mg/kg (2 h) was 83%, the inhibition at 5 mg/kg (6 h) was 91% and the inhibition at 5 mg/kg (24 h) was 56%.
For Cc1cccc(C)c1/C=C/c1cccc(CCCN)c1 [Example 1, (E)-3-(3-(2,6-dimethylstyryl)phenyl)propan-1-amine], the “time of maximum inhibitory effect after gavage” value (isomerase inhibitory activity over time, mice, FIG. 1) was ~6 h, the inhibition at 1 mg/kg (2 h) was 0% and the inhibition at 1 mg/kg (6 h) was 0%. For the same molecule, the inhibition at 1 mg/kg (24 h) was 0%, the inhibition at 5 mg/kg (4 h) was 57% and the inhibition at 5 mg/kg (24 h) was 58%. It also gave an inhibition at 10 mg/kg (4 h) of 80% and an ED50 (mice) of 4.3 mg/kg.
NCCC(O)c1cccc(/C=C/C2(O)CCCCC2)c1 (stereo not shown) [Example 111, (E)-1-(3-(3-amino-1-hydroxypropyl)styryl)cyclohexanol] gave an inhibition at 5 mg/kg (4 h) of 90% and an inhibition at 5 mg/kg (24 h) of 0%.
In the case of CC1=C(/C=C/c2cccc(C(F)CCN)c2)C(C)(C)CCC1 (stereo not shown) [Example 55, (E)-3-fluoro-3-(3-(2-(2,6,6-trimethylcyclohex-1-enyl)vinyl)phenyl)propan-1-amine], the inhibition at 1 mg/kg (2 h) is reported as 0%, the inhibition at 5 mg/kg (4 h) is reported as 75% and the inhibition at 5 mg/kg (24 h) is reported as 89%.
For CC1=C(/C=C/c2cccc(C(=O)CCN)c2)C(C)(C)CCC1 [Example 56, (E)-3-amino-1-(3-(2-(2,6,6-trimethylcyclohex-1-enyl)vinyl)phenyl)propan-1-one], the inhibition at 1 mg/kg (2 h) was 26%, the inhibition at 1 mg/kg (6 h) was 75% and the inhibition at 1 mg/kg (24 h) was 77%.
For NCCCc1cccc(/C=C/C2CCCCC2)c1 [Example 22, (E)-3-(3-(2-cyclohexylvinyl)phenyl)propan-1-amine], the inhibition at 10 mg/kg (4 h) was 0%.
With CC1=C(/C=C/c2cccc(C(O)C(C)CN)c2)C(C)(C)CCC1 (stereo not drawn) [Example 59, (E)-(syn/anti)-3-amino-2-methyl-1-(3-(2-(2,6,6-trimethylcyclohex-1-enyl)vinyl)phenyl)propan-1-ol] the inhibition at 1 mg/kg (4 h) was 0%, the inhibition at 1 mg/kg (6 h) was 1% and the inhibition at 5 mg/kg (4 h) was 21%. For the same molecule, the inhibition at 5 mg/kg (24 h) was 7%.
For CCCC(O)(/C=C/c1cccc(CCCN)c1)CCC [Example 83, (E)-4-(3-(3-aminopropyl)styryl)heptan-4-ol], the inhibition at 1 mg/kg (4 h) was 55%, the inhibition at 1 mg/kg (24 h) was 0% and the inhibition at 5 mg/kg (4 h) was 97%. It also gave an inhibition at 5 mg/kg (24 h) of 3%.
With CC1=C(/C=C/c2cccc(C#CCN)c2)C(C)(C)CCC1 [Example 68, (E)-3-(3-(2-(2,6,6-trimethylcyclohex-1-enyl)vinyl)phenyl)prop-2-yn-1-amine] the inhibition at 10 mg/kg (4 h) was 75%.
Work on CC1=C(/C=C/c2cccc(C(N)CCN)c2)C(C)(C)CCC1 (stereo not shown) [Example 61, (E)-1-(3-(2-(2,6,6-trimethylcyclohex-1-enyl)vinyl)phenyl)propane-1,3-diamine] yielded an inhibition at 1 mg/kg (4 h) of 0%, an inhibition at 1 mg/kg (6 h) of 0% and an inhibition at 5 mg/kg (4 h) of 12%. The inhibition at 5 mg/kg (24 h) was 0%.
CC(C)(O)/C=C/c1cccc(CCCN)c1 [Example 79, (E)-4-(3-(3-aminopropyl)phenyl)-2-methylbut-3-en-2-ol] showed an inhibition at 5 mg/kg (4 h) of 24% and an inhibition at 5 mg/kg (24 h) of 0%.
Molecule CCCCC/C=C/c1cccc(CCCN)c1 [Example 24, (E)-3-(3-(hept-1-enyl)phenyl)propan-1-amine] has an inhibition at 10 mg/kg (4 h) of 16%.
Work on CCC/C=C/c1cccc(CCCN)c1 [Example 23, (E)-3-(3-(pent-1-enyl)phenyl)propan-1-amine] yielded an inhibition at 10 mg/kg (4 h) of 0%.
For CNCCCc1cccc(/C=C/c2c(C)cccc2C)c1 [Example 7, (E)-3-(3-(2,6-dimethylstyryl)phenyl)-N-methylpropan-1-amine], the inhibition at 10 mg/kg (4 h) was 36% and the inhibition at 10 mg/kg (24 h) was 8%.
For COc1ccccc1C=Cc1cccc(CCCN)c1 (mixture of isomers) [Example 41], the inhibition at 10 mg/kg (4 h) was 76%.
Work on NC[C@@H](O)Cc1cccc(/C=C/c2c(Cl)cccc2Cl)c1 [Example 75, (S,E)-1-amino-3-(3-(2,6-dichlorostyryl)phenyl)propan-2-ol] yielded an inhibition at 1 mg/kg (2 h) of 19%, an inhibition at 1 mg/kg (6 h) of 20% and an inhibition at 1 mg/kg (24 h) of 13%. It also gave an inhibition at 5 mg/kg (2 h) of 81%, an inhibition at 5 mg/kg (6 h) of 90% and an inhibition at 5 mg/kg (24 h) of 85%.
CC1=C(/C=C/c2cccc(CCCN)c2)C(C)(C)CCC1 [Example 21, (E)-3-(3-(2-(2,6,6-trimethylcyclohex-1-enyl)vinyl)phenyl)propan-1-amine] showed an inhibition at 10 mg/kg (4 h) of 80%.
NCCCc1cccc(/C=C/c2c(Cl)cccc2Cl)c1 [Example 43, (E)-3-(3-(2,6-dichlorostyryl)phenyl)propan-1-amine] gave an inhibition at 1 mg/kg (2 h) of 0%, an inhibition at 1 mg/kg (6 h) of 7% and an inhibition at 1 mg/kg (24 h) of 16%. The inhibition at 5 mg/kg (4 h) was 79%, the inhibition at 5 mg/kg (24 h) was 54% and the inhibition at 10 mg/kg (4 h) was 94%.
